{"source": "patent US10874733B2", "about": "(priority 2016, dated 2020)", "format_in_all_cases": "physicochemical", "key": {"[1]": {"test": "Liposome size by dynamic light scattering (hydrodynamic size)", "conditions": "for Liposome size (d, nm): DMPC:DOTAP liposome", "protocol": "(§1) 1 mL of each of the sample of the lipid dissolution step and 1 mL of a sample obtained by simply mixing the glycolipid of Preparation Example 2-(3) with liposome were added to a cuvette, and a hydrodynamic size was measured using a dynamic light-scattering apparatus (Malvern instrument, ZSP nano) (Table 2)."}, "[2]": {"test": "Liposome surface charge (zeta potential)", "conditions": "for Liposome surface charge (mV): DMPC:DOTAP liposome", "protocol": "as §1, with “with a” for “with”, “loaded on” for “added to”, “cuvette for measuring a surface charge (zeta potential),” for “cuvette,”, “surface charge” for “hydrodynamic size”, “4).” for “2).”"}, "[3]": {"test": "Liposome size homogeneity (PDI, size distribution) by dynamic light scattering", "conditions": "for Liposome PDI: DMPC:DOTAP liposome", "protocol": "as §1, with “and distribution were analyzed” for “was measured”, “3, FIGS. 3 and 4). FIG. 3 is a diagram showing a liposome size distribution in a lipid-solubilization step, and FIG. 4 is a diagram showing a liposome size distribution in a step of simply mixing glycolipid with a liposome.” for “2).”"}, "[4]": {"conditions": "lipid dissolution step, glycolipid content 1 mol %"}, "[5]": {"conditions": "lipid dissolution step, glycolipid content 3 mol %"}, "[6]": {"conditions": "step of simple mixing with liposome, glycolipid content 1 mol %"}, "[7]": {"conditions": "step of simple mixing with liposome, glycolipid content 3 mol %"}, "[8]": {"conditions": "step of simple mixing with liposome, glycolipid content 6 mol %"}, "[9]": {"conditions": "lipid dissolution step, glycolipid content 6 mol %"}}, "data": [{"substance": "Monophosphoryl lipid A [MPL]", "values": [{"measurement": "Liposome size (d, nm)", "setting": "[1]; glycolipid incorporated in lipid dissolution step, glycolipid content 6 mol %", "result": 355.4, "unit": "nm"}, {"measurement": "Liposome size (d, nm)", "setting": "[1]; [4]", "result": 367.9, "unit": "nm"}, {"measurement": "Liposome size (d, nm)", "setting": "[1]; [5]", "result": 309.2, "unit": "nm"}, {"measurement": "Liposome size (d, nm)", "setting": "[1]; [6]", "result": 694.9, "unit": "nm"}, {"measurement": "Liposome size (d, nm)", "setting": "[1]; [7]", "result": 1206.1, "unit": "nm"}, {"measurement": "Liposome size (d, nm)", "setting": "[1]; [8]", "result": 1538.7, "unit": "nm"}, {"measurement": "Change of liposome size on simple mixing with a liposome", "setting": "[1]; glycolipid simply mixed with liposome", "result": "tended to increase in size"}, {"measurement": "Liposome surface charge (mV)", "setting": "[2]; [4]", "result": "57.0 ± 3.0", "unit": "mV"}, {"measurement": "Liposome surface charge (mV)", "setting": "[2]; [5]", "result": "56.2 ± 0.6", "unit": "mV"}, {"measurement": "Liposome surface charge (mV)", "setting": "[2]; [9]", "result": "23.7 ± 0.6", "unit": "mV"}, {"measurement": "Liposome surface charge (mV)", "setting": "[2]; [6]", "result": "57.8 ± 1.6", "unit": "mV"}, {"measurement": "Liposome surface charge (mV)", "setting": "[2]; [7]", "result": "56.9 ± 3.4", "unit": "mV"}, {"measurement": "Liposome surface charge (mV)", "setting": "[2]; [8]", "result": "48.5 ± 1.4", "unit": "mV"}, {"measurement": "Surface charge change", "setting": "[2]; mixed at a high content of 6 mol %", "result": "decreased sharply"}, {"measurement": "Liposome PDI", "setting": "[3]; [4]", "result": 0.353}, {"measurement": "Liposome PDI", "setting": "[3]; [5]", "result": 0.412}, {"measurement": "Liposome PDI", "setting": "[3]; [9]", "result": 0.405}, {"measurement": "Liposome PDI", "setting": "[3]; [6]", "result": 0.552}, {"measurement": "Liposome PDI", "setting": "[3]; [7]", "result": 0.793}, {"measurement": "Liposome PDI", "setting": "[3]; [8]", "result": 0.887}, {"measurement": "Liposome size distribution", "setting": "[3]; glycolipid incorporated during lipid dissolution (encapsulated liposome), FIG. 3", "result": "not uniform"}, {"measurement": "Dispersibility of the liposome (PDI)", "setting": "[3]; over glycolipid contents 6, 3, 1 mol %", "result": "increased depending on concentration"}, {"measurement": "Liposome size distribution", "setting": "[3]; simple mixing of liposome with glycolipid (adsorbed liposome), FIG. 4", "result": "not uniform"}]}]}
